# Measurements from publication PMC9743128, “Phenotype-based screening rediscovered benzopyran-embedded microtubule inhibitors as anti-neuroinflammatory agents by modulating the tubulin–p65 interaction” (Experimental & Molecular Medicine, 2022).
# How the values were obtained:
# [1] = test system: LPS-mediated NO release in BV-2 microglial cells; experiment: Griess assay: cellular NO release after LPS treatment; format: cell-based, murine
# Experimental: Cellular secretion of nitric oxide (NO) was quantified with the Griess assay. BV-2 cells were seeded on a clear flat bottom TC-treated 96-well plate (Corning; #3598) and sealed with breathable sealing tape (Axygen; BF-400-S). After 18 h, BV-2 cells were treated with compounds in the absence or presence of 100 ng/mL LPS (Sigma; L4391). After 24 h, 50 μL of the cell culture media was mixed with the same volume of Griess reagent {0.1% naphthylethylenediamine dihydrochloride (Sigma; #222488) and 1% sulfanilamide (Sigma; S9251) in 4% phosphoric acid (Daejung; #6532-4405)}. Absorbance at 550 nm was measured using a microplate reader (BioTek; Synergy). Sodium nitrite (Alfa Aesar; A18668) was used for standard curve generation.
# Microglia are tissue-resident macrophages involved in CNS immunosurveillance[3],[39]. Microglial activation induces proinflammatory cytokine tumor necrosis factor α (TNF-α) expression, resulting in neural toxicity[5],[6]. Therefore, the inhibition of microglial activation is critical for regulating neuroinflammation. To discover anti-neuroinflammatory NCEs, we monitored the cellular release of nitric oxide (NO) in response to lipopolysaccharide (LPS) treatment as a mimic of pathogenic activation of innate immune systems upon compound treatment in BV-2 cells using the Griess assay.
# [2] = Pharmacokinetic (PK) study after IP injection; details: C57BL/6, mouse, in vivo, I.P., 5 mg/kg
# tubulin = molecular target: T1, tubulin (Sus scrofa, UniProt P02550+P02554); experiment: Tubulin polymerization assay; format: biochemical; details: 1 μM compound
# T1 construct: purchased Cytoskeleton BK006P
# T1 sequence (P02554 whole entry): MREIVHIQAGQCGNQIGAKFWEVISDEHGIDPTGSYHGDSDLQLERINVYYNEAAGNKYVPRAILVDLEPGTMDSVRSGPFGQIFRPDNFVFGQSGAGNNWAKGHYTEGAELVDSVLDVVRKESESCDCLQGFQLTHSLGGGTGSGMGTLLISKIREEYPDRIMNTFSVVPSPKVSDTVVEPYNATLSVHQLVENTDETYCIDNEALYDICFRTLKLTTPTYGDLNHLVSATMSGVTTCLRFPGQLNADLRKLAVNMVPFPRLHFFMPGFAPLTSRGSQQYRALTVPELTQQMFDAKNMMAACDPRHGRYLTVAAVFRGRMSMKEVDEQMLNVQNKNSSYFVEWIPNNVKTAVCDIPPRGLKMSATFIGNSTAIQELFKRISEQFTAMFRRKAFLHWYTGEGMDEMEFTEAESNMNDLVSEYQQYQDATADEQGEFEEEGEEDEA
# T1 sequence (P02550 whole entry): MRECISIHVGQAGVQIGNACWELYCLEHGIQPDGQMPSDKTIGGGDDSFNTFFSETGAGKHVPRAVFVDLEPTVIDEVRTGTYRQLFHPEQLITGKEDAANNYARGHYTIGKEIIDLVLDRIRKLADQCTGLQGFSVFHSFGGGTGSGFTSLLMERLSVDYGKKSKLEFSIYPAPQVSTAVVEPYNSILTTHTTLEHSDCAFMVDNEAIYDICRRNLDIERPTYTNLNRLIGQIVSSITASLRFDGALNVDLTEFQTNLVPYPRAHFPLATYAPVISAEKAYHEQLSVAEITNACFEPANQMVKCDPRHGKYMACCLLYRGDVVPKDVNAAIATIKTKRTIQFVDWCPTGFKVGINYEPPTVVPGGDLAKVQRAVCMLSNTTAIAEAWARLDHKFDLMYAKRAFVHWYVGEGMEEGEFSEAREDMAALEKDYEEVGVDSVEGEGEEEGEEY
# Experimental: The tubulin polymerization inhibition efficacy of the compounds was measured by a tubulin polymerization assay kit (Cytoskeleton; BK006P) according to the manufacturer’s manual. Absorbance at 340 nm was measured to observe the formation of tubulin polymers using a microplate reader (Biotek; Synergy).
# Supplementary Fig. 4. Tubulin polymerization inhibition by compounds 1–13 (1 μM). In the presence or absence of compounds, tubulin was incubated to polymerize at room temperature. Absorbance at 340 nm was measured in a time-dependent manner for monitoring the rate of tubulin polymerization.
# Supplementary Table 2. Tubulin polymerization inhibition of the focused library. Tubulin was incubated with each compound (1 μM) and the tubulin polymerization inhibition was monitored. Vmax was calculated from tubulin polymer generation curve data of Supplementary Fig. 3.
# J774A.1 cells = experiment: Flow cytometry cell cycle analysis (PI staining); format: cell-based, murine
# Experimental: NF-κB SEAP reporter HEK293T cell (Invivogen; hkb-mmcl) were seeded 10,000 cells/well at white 96-well plate (Falcon; 353296). HEK293 cells were transfected with a 1 to 1 ratio of 3xAP1pGL3 (Addgene; #40342) and pRL-TK (Promega; E2241) mixture using LTX plus (Invitrogen; 15338100) and opti-MEM (Gibco; 31985070) according to the manufacturer's protocol. After 24-h compound treatment or the overexpression of α-tubulin or GFP, 40 μl of the medium was transferred to a 96-well plate and mixed with 180 μl of quanti-blue solution (Invitrogen; rep-qbs) for the measurement of NF-κB activation. We measured the absorbance at 655 nm after 2-h incubation at 37 °C. To measure the AP-1 activation, cells were washed with PBS and lysed with 20 μl of 1× passive lysis buffer for 15 min. Luciferase signals were measured by dual-luciferase reporter assay system (Progema; E1980) using a microplate reader (BioTek; Synergy HTX). Expression levels of SEAP and AP-1 were normalized by renilla luciferase signal.
# J774A.1 cells were treated with each compound for the designated time and dose. The cells were trypsinized and re-suspended in PBS containing 2% FBS (Gibco; #16000-044). To measure cell cycle arrest, the same number of the re-suspended cells was stained with propidium iodide (PI) (Abcam; ab14085) according to the manufacturer’s protocol. […]
structure (smiles),measurement,setting,value
COc1ccc2c(c1O)OC(C)(C)C=C2c1cccc2c1oc1ccccc12 [Compound 8],inhibition at 10 µM,"[1]; Mus musculus, 10 μM, BV-2 cells, LPS, read-out: % NO inh. at 10 μM",102%
same,IC50,"[1]; Mus musculus, BV-2 cells, 100 ng/mL LPS, 24 h",1130 nM
same,Anti-neuroinflammatory activity in compensated Griess assay with Taxol,"[1]; SB26019 5 μM, with or without tubulin stabilizer Taxol",attenuated in the presence of Taxol in a dose-dependent manner
same,AUC(0-inf),[2],1790 ± 310 ng·h/mL
same,AUC(0-t),[2],1770 ± 300 ng·h/mL
same,Cmax,[2],1200 ± 260 ng/mL
same,Tmax,[2],0.17 h
same,half-life,[2],3.57 ± 0.62 h
same,Vmax of microtubule polymerization compared to DMSO control,tubulin,significantly inhibited tubulin polymerization
same,Cell cycle arrest,J774A.1 cells,no cell cycle arrest
